The results in this text go back to PubChem BioAssay (NCI).

Some test systems named below: CAKI-1 renal; MALME-3M melanoma; MOLT-4 leukemia; SK-OV-3 ovarian; A498 renal; 786-0 renal; NCI-H460 lung; SF-539 CNS; U251 CNS; OVCAR-3 ovarian; OVCAR-4 ovarian; COLO 205 colon; HOP-92 NSCLC; HCT-116 colon; SR leukemia.
Common to all, as to test: DTP human tumour cell line panel, 48 h

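Assay format: 96-well plates, 48-hour exposure. Here, GI50 denotes the concentration required for 50% inhibition of growth. TGI: total growth inhibition.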

What is called TGI is the concentration at which net growth stops. In general, GI50 refers to the concentration that inhibits growth by half.

Turning to `C=CCNC(=O)N(CCCC(NC(C)=O)C(=O)NCc1ccccc1)Cc1ccccc1` (stereo unspecified), the TGI in the assay on CAKI-1 renal, with MALME-3M melanoma, in the assay on MOLT-4 leukemia, in the assay with SK-OV-3 ovarian, in the assay on A498 renal and in the assay with 786-0 renal was above 100 µM each time. In addition, the TGI with NCI-H460 lung, with SF-539 CNS, in the assay on U251 CNS, with OVCAR-3 ovarian, in the assay with OVCAR-4 ovarian and in the assay with COLO 205 colon was above 100 µM each time. Also, the TGI in the assay on HOP-92 NSCLC is above 100 µM.
Take `CCOc1ccc(/C(Cl)=C(\C=O)c2ccc(OC)c(OC)c2)cc1OCC`: the TGI in the assay with CAKI-1 renal is above 100 µM; with HCT-116 colon it was above 100 µM; in the assay on MALME-3M melanoma, above 100 µM; in the assay on MOLT-4 leukemia, above 100 µM; in the assay on SR leukemia it was 50.8 µM; with SK-OV-3 ovarian, above 100 µM. Besides, the TGI with 786-0 renal is above 100 µM; in the assay with NCI-H460 lung, above 100 µM; with SF-539 CNS, above 100 µM; in the assay with U251 CNS, 97.5 µM; in the assay on OVCAR-3 ovarian it was above 100 µM; in the assay with OVCAR-4 ovarian, above 100 µM. The total growth inhibition concentration (TGI) with COLO 205 colon and in the assay with HOP-92 NSCLC was above 100 µM in each case.
`CC1CN(c2ccc(Cl)cc2)CC(C)OC(=O)O1` (stereo unspecified): the TGI in the assay with CAKI-1 renal, in the assay with MALME-3M melanoma, in the assay on SR leukemia, with SK-OV-3 ovarian, in the assay with 786-0 renal and in the assay with NCI-H460 lung was above 100 µM throughout. Further, the TGI with SF-539 CNS, in the assay with U251 CNS, with OVCAR-3 ovarian, in the assay with OVCAR-4 ovarian, with COLO 205 colon and with HOP-92 NSCLC was above 100 µM each time.
For `CC1=NN(c2nc(N)nc(CSc3nc4n(c(=S)n3)CCN4)n2)C(C)(C)C1`, the TGI is 61.2 µM with CAKI-1 renal; above 100 µM in the assay on HCT-116 colon; above 100 µM in the assay with MOLT-4 leukemia; above 100 µM with SR leukemia; 71.6 µM in the assay on SK-OV-3 ovarian; above 100 µM in the assay on A498 renal. Moreover, the TGI in the assay with 786-0 renal, in the assay on NCI-H460 lung, in the assay on SF-539 CNS, with U251 CNS, with OVCAR-4 ovarian and with COLO 205 colon was above 100 µM throughout. Moreover, the TGI in the assay on HOP-92 NSCLC was found to be 44.3 µM.
Turning to `N#Cc1c(-c2ccc([N+](=O)[O-])cc2)c(C#N)c(=O)n(NS(=O)(=O)c2ccccc2)c1-c1ccccc1`, the TGI in the assay on CAKI-1 renal, in the assay on HCT-116 colon, in the assay with MALME-3M melanoma, with MOLT-4 leukemia, with SK-OV-3 ovarian and in the assay with A498 renal was above 100 µM in each case. The TGI in the assay with 786-0 renal, in the assay with NCI-H460 lung, in the assay on SF-539 CNS, in the assay with U251 CNS, with OVCAR-4 ovarian and with COLO 205 colon was above 100 µM each time. Further, the TGI in the assay with HOP-92 NSCLC is above 100 µM.
As for `COc1ccc(CNC(=O)NCn2cc(-c3ccccc3)nn2)cc1`, the TGI in the assay with CAKI-1 renal, in the assay on HCT-116 colon, with MALME-3M melanoma, in the assay with MOLT-4 leukemia, in the assay with SR leukemia and in the assay on 786-0 renal was above 100 µM each time. For the same molecule, the TGI in the assay on NCI-H460 lung, in the assay on SF-539 CNS, in the assay on U251 CNS, in the assay on OVCAR-4 ovarian, in the assay with COLO 205 colon and in the assay on HOP-92 NSCLC was above 100 µM each time.
For `COC(=O)C(C#CCCCCC#CC(NC(=O)OCc1ccccc1)(C(=O)OC)C(F)(F)F)(NC(=O)OCc1ccccc1)C(F)(F)F` (stereo unspecified), the TGI in the assay with CAKI-1 renal, with HCT-116 colon, with MALME-3M melanoma, in the assay with SK-OV-3 ovarian, in the assay on A498 renal and in the assay with 786-0 renal was above 100 µM each time. Moreover, the TGI in the assay with NCI-H460 lung, in the assay with SF-539 CNS, in the assay with U251 CNS, with OVCAR-3 ovarian, in the assay on OVCAR-4 ovarian and in the assay on COLO 205 colon was above 100 µM in each case. The same molecule displayed a TGI in the assay with HOP-92 NSCLC above 100 µM.
Consider `O=C(NCCNCCCNC(=O)c1cc(-c2ccccc2)nc2ccccc12)c1cccc(O)c1O`, for which the TGI in the assay on CAKI-1 renal was above 100 µM; with HCT-116 colon it was 28.5 µM; with MALME-3M melanoma it was 20.2 µM; in the assay on MOLT-4 leukemia, above 100 µM; with SK-OV-3 ovarian, above 100 µM; in the assay on A498 renal, 55.9 µM. Further, the TGI was above 100 µM with 786-0 renal; 41.6 µM in the assay on NCI-H460 lung; 11.6 µM in the assay on SF-539 CNS; 17.6 µM in the assay on U251 CNS; 26.3 µM with OVCAR-3 ovarian; 22.4 µM in the assay on COLO 205 colon. Besides, in the assay with HOP-92 NSCLC, the TGI worked out at 62.9 µM.
Consider `CC[C@]1(Cc2ccc(OC)c(OC)c2)C=[N+]([O-])O[C@H](OC2CCCC2(c2ccccc2)c2ccccc2)[C@@H]1OC(C)=O` (stereo partly specified), for which the TGI is 6.16 µM in the assay on HCT-116 colon; 4.83 µM with MALME-3M melanoma; above 23.8 µM in the assay with MOLT-4 leukemia; above 100 µM in the assay on SR leukemia; 50.2 µM with SK-OV-3 ovarian; 3.67 µM in the assay with 786-0 renal. Moreover, the TGI was 20.7 µM in the assay on NCI-H460 lung; above 62 µM in the assay with U251 CNS; 4.13 µM with OVCAR-3 ovarian; 25.5 µM in the assay on OVCAR-4 ovarian; 12 µM with COLO 205 colon; 54.7 µM with HOP-92 NSCLC.
Take `Cc1ccc(N2C(=O)CS/C2=C(\C#N)c2nc3ccccc3[nH]2)cc1`: the TGI with CAKI-1 renal, with HCT-116 colon, with MALME-3M melanoma, with MOLT-4 leukemia, with SR leukemia and in the assay with A498 renal was above 100 µM each time. In addition, the TGI with 786-0 renal, with NCI-H460 lung, in the assay with SF-539 CNS, with U251 CNS, with OVCAR-3 ovarian and in the assay on OVCAR-4 ovarian was above 100 µM in each case. Moreover, the TGI in the assay with COLO 205 colon and in the assay on HOP-92 NSCLC was above 100 µM in each case.
As to `CCC12CCCN(Cc3ccccc3)C1c1c(n(C)c3ccccc13)C(C(=O)OC)C2` (stereo unspecified), the TGI in the assay with CAKI-1 renal, in the assay with HCT-116 colon, with MALME-3M melanoma, in the assay on MOLT-4 leukemia, with SR leukemia and in the assay on SK-OV-3 ovarian was above 239 µM each time. Also, the TGI was above 239 µM in the assay on 786-0 renal; above 239 µM in the assay with NCI-H460 lung; above 239 µM in the assay on SF-539 CNS; above 239 µM in the assay on U251 CNS; 170 µM in the assay with OVCAR-3 ovarian; above 239 µM in the assay on COLO 205 colon. The molecule also displayed a TGI in the assay with HOP-92 NSCLC above 239 µM.
As to `Nc1nc(SCc2ccc([N+](=O)[O-])cc2)nc2c1ncn2C1OC(CO)C(O)C1O` (stereo unspecified), the concentration for total growth inhibition (TGI) in the assay on HCT-116 colon, with MALME-3M melanoma, in the assay with MOLT-4 leukemia, with SR leukemia, in the assay on A498 renal and in the assay with 786-0 renal was above 100 µM throughout. The total growth inhibition concentration (TGI) in the assay on NCI-H460 lung, in the assay on U251 CNS, in the assay on OVCAR-3 ovarian, with OVCAR-4 ovarian and in the assay with COLO 205 colon was above 100 µM each time.
As for `COc1cccc([C@H]2C/C(=N\NC(=O)C(=O)N[C@@H](C)c3ccccc3)c3ccccc3N2)c1`, the TGI was 54.1 µM with CAKI-1 renal; 12 µM with HCT-116 colon; above 100 µM in the assay on SK-OV-3 ovarian; above 100 µM with A498 renal; 97.3 µM in the assay on 786-0 renal; 21.3 µM in the assay with SF-539 CNS. Besides, the TGI with U251 CNS was above 100 µM; in the assay on OVCAR-3 ovarian it was above 100 µM; in the assay with OVCAR-4 ovarian it was above 100 µM; in the assay on COLO 205 colon, 13.1 µM; in the assay with HOP-92 NSCLC it was above 100 µM. Also, the GI50 in the assay with SF-539 CNS is 0.0208 µM; in the assay with U251 CNS, 0.0325 µM; with OVCAR-4 ovarian it was 45.3 µM; in the assay on HOP-92 NSCLC it was 0.422 µM.
As for `CN1c2ccccc2N(C(=O)c2ccc(Cl)cc2)C(CC(=O)O)c2cccn21` (stereo unspecified), the TGI in the assay with CAKI-1 renal, in the assay with MALME-3M melanoma, with MOLT-4 leukemia, with SK-OV-3 ovarian, in the assay on A498 renal and in the assay on 786-0 renal was above 100 µM throughout. In addition, the TGI in the assay on NCI-H460 lung, in the assay with SF-539 CNS, in the assay on OVCAR-3 ovarian, in the assay on OVCAR-4 ovarian, in the assay with COLO 205 colon and in the assay on HOP-92 NSCLC was above 100 µM throughout.
As to `CCOC(=O)/C=C/n1c2ccccc2c(=O)c2ccccc21`, the TGI in the assay with CAKI-1 renal, in the assay on HCT-116 colon, with MALME-3M melanoma, with MOLT-4 leukemia, with SR leukemia and with A498 renal was above 100 µM each time. Further, the total growth inhibition concentration (TGI) with 786-0 renal, in the assay with NCI-H460 lung, in the assay on SF-539 CNS, in the assay on U251 CNS, in the assay with OVCAR-3 ovarian and in the assay with OVCAR-4 ovarian was above 100 µM in each case. The TGI in the assay with COLO 205 colon is above 100 µM.
Take `Cc1cc(N(CCC#N)CCC#N)ccc1/C(N=Nc1ccc(C(=O)O)cc1)=N\NC(=O)c1cc(Cl)ccc1O`: the TGI was above 100 µM in the assay with CAKI-1 renal; above 100 µM in the assay on HCT-116 colon; above 100 µM in the assay with MALME-3M melanoma; above 100 µM in the assay on MOLT-4 leukemia; above 100 µM in the assay on SR leukemia; 64.5 µM with SK-OV-3 ovarian. In addition, the TGI was 87.7 µM with A498 renal; 39.8 µM in the assay with 786-0 renal; above 100 µM with NCI-H460 lung; 63.1 µM with U251 CNS; above 100 µM in the assay on OVCAR-3 ovarian; 97 µM in the assay with OVCAR-4 ovarian. In addition, in the assay on COLO 205 colon, the total growth inhibition concentration (TGI) is above 100 µM.
